Where a name gives a salt, the structure may show the parent alone. Read-outs that look alike come from different tables or passages of the source.
What was measured:
Assay type in all cases: cell-based, human
HT-29 cells = experiment: Inhibition test for sphere-forming ability of cancer cells (Test Example 1), HT-29; settings: for IC50: read-out: IC50 (μmol/L) HT-29 (Sphere IC50 value); for (100%-inhibition rate of cell proliferation) at 1 μmol/L, HT-29: value with %
From the text: (§1) The reliable methods established for measuring the self-renewal ability of cells which is one of the CSC's properties include a method for measuring the sphere-forming ability of cancer cells in non-adherent condition in the absence of serum (Cancer Res 65, 5506-5511 (2005)). Human colorectal cancer-derived HCT-116 cells, human colon-adenocarcinoma-derived HT-29 cells, and human pharyngeal cancer-derived FaDu cells were available from American Type Culture Collection (ATCC). HCT-116 cells and HT-29 cells were cultured at 37° C. under 5% CO2 using the McCoy's 5a medium containing 10% fetal bovine serum (FBS) and 1% penicillin/streptomycin, and FaDu cells were cultured at 37° C. under 5% CO2 using the MEM medium containing 10% FBS, 1% non-essential amino acid, 1% sodium pyruvate, and 1% penicillin/streptomycin. HCT-116 cells, HT-29 cells, and FaDu cells were seeded in a 384 Well Black Clear Bottom Ultra-Low Attachment Microplate (Corning Cat. No. 3827) in an amount of 350-800 cells/well using the DMEM/F12 medium containing 2% B27 supplement (GIBCO), 20 ng/mL epidermal growth factor (EGF) (peprotech), 10 ng/mL basic fibroblast growth factor (bFGF) (peprotech), 5 μg/mL insulin (Sigma), and 1% penicillin/streptomycin. Each test compound was added into each well to adjust the final concentration of DMSO to 0.1%, and the cells were cultured for 4 days. The number of viable cells in each well was then measured with CellTiter-Glo® Luminescent Cell Viability Assay (Promega) to calculate the concentration of each test compound for 50% inhibition of cell proliferation (Sphere IC50 value; μmol/L).
(§2) The experiment of Test Example 1 was performed for each compound of each Example. The concentration of each test compound for 50% inhibition of cell proliferation (Sphere IC50 value; μmol/L) is shown in the following Table.

FaDu cells = experiment: Inhibition test for sphere-forming ability of cancer cells (Test Example 1), FaDu; settings: for IC50: read-out: IC50 (μmol/L) FaDu (Sphere IC50 value); for (100%-inhibition rate of cell proliferation) at 1 μmol/L, FaDu: value with %
From the text: as §1, §2

HCT-116 cells = experiment: Inhibition test for sphere-forming ability of cancer cells (Test Example 1), HCT-116; settings: for IC50: read-out: IC50 (μmol/L) HCT-116 (Sphere IC50 value); for inhibitory effect on the sphere-forming ability of cancer cells: Test Example 1, summary in words, cell line not given (HCT-116, HT-29, FaDu tested)
From the text: as §1, §2

[1] = concentration for 50% inhibition of cell proliferation
[2] = HCT-116 cells, concentration for 50% inhibition of cell proliferation
[3] = HCT-116 cells, 1 μmol/L, value with %
[4] = Homo sapiens, read-out: (100%-inhibition rate of cell proliferation) at 1 μmol/L, 1 μmol/L, value with %
[5] = Homo sapiens, concentration for 50% inhibition of cell proliferation
[6] = Homo sapiens, HCT-116 cells, concentration for 50% inhibition of cell proliferation

Compound	IC50 (HT-29 cells; [1]) [µmol/L]	IC50 (HCT-116 cells; [2]) [µmol/L]	IC50 (HT-29 cells; [5]) [µmol/L]	IC50 (HCT-116 cells; [6]) [µmol/L]	other results
Nc1ccc(C(=O)Nc2cn(Cc3cccc(Cl)c3)cn2)cn1 [Example 224]	5.51	6.71	–	–	IC50 (FaDu cells; [1]): 5.44 µmol/L
O=C(/C=C/c1ccc(Cl)c(Cl)c1)Nc1cn(Cc2cccc(Cl)c2)cn1 [Example 59]	0.79	7.78	–	–	IC50 (FaDu cells; [1]): 0.86 µmol/L
O=C(/C=C/c1ccoc1)Nc1cn(Cc2cccc(Cl)c2)cn1 [Example 88]	0.83	0.88	–	–	IC50 (FaDu cells; [1]): 0.91 µmol/L
COc1ccc(C(=O)Nc2cn(Cc3ccc(C(C)C)cc3)cn2)cc1OC [Example 168]	–	–	–	–	(100%-inhibition rate of cell proliferation) at 1 μmol/L, HT-29 (HT-29 cells): 8.6%; (100%-inhibition rate of cell proliferation) at 1 μmol/L, FaDu (FaDu cells): 32.3%; (100%-inhibition rate of cell proliferation) at 1 μmol/L, HCT-116 (HCT-116 cells; [3]): 32.1%
CC(C)Oc1ccc(C(=O)Nc2cn(Cc3cccc(Cl)c3)cn2)cc1 [Example 140]	–	–	–	–	viability at 1 µM (HT-29 cells; [4]): 83%; viability at 1 µM (FaDu cells; [4]): 81.8%; viability at 1 µM (HCT-116 cells; Homo sapiens, read-out: (100%-inhibition rate of cell proliferation) at 1 μmol/L, HCT-116 cells, 1 μmol/L, value with %): 31.4%
O=C(/C=C/c1ccc(C(=O)N2CCCC2)nc1)Nc1cn(Cc2cccc(Cl)c2)cn1 [Example 28]	–	–	0.91	7.89	IC50 (FaDu cells; [5]): 0.8 µmol/L
COc1ccc(C(=O)Nc2cn(Cc3cccc(C)c3)cn2)cc1OC [Example 291]	–	–	–	–	(100%-inhibition rate of cell proliferation) at 1 μmol/L, HT-29 (HT-29 cells): 37.1%; (100%-inhibition rate of cell proliferation) at 1 μmol/L, FaDu (FaDu cells): 37.8%; (100%-inhibition rate of cell proliferation) at 1 μmol/L, HCT-116 (HCT-116 cells; [3]): 70.8%
COc1cc(/C=C/C(=O)Nc2cn(Cc3cccc(Cl)c3)cn2)cc(OC)c1 [Example 85]	–	–	–	–	IC50 (μmol/L) HT-29 (Sphere IC50 value) (HT-29 cells; [1]): 25.90 µmol/L; IC50 (μmol/L) FaDu (Sphere IC50 value) (FaDu cells; [1]): 13.73 µmol/L; IC50 (μmol/L) HCT-116 (Sphere IC50 value) (HCT-116 cells; [2]): 17.96 µmol/L
COc1ccc(C(=O)Nc2cn(Cc3cc(Cl)nc(Cl)c3)cn2)cc1OC [Example 170]	–	–	–	–	(100%-inhibition rate of cell proliferation) at 1 μmol/L, HT-29 (HT-29 cells): 24.9%; (100%-inhibition rate of cell proliferation) at 1 μmol/L, FaDu (FaDu cells): 27.1%; (100%-inhibition rate of cell proliferation) at 1 μmol/L, HCT-116 (HCT-116 cells; [3]): 33.8%
O=C(/C=C/c1cncc(Br)c1)Nc1cn(Cc2cccc(Cl)c2)cn1 [Example 45]	–	–	0.88	6.38	IC50 (FaDu cells; [5]): 0.81 µmol/L
Cc1ccc(F)c(Cn2cnc(NC(=O)c3ccc(OC(C)C)nc3)c2)c1F [Example 217]	0.48	0.22	–	–	IC50 (FaDu cells; [1]): 0.75 µmol/L
O=C(/C=C/c1ccc(C(F)(F)F)nc1)Nc1cn(Cc2cccc(Cl)c2)cn1 [Example 44]	–	–	0.05	0.1	IC50 (FaDu cells; [5]): 0.07 µmol/L
CCOc1ncc(C(=O)Nc2cn(Cc3cccc(Cl)c3)cn2)cc1Cl [Example 220]	4.25	> 10	–	–	IC50 (FaDu cells; [1]): 0.77 µmol/L
O=C(/C=C/c1cccnc1)Nc1cn(Cc2cccc(C(F)(F)F)c2)cn1 [Example 103]	–	–	0.6	0.87	IC50 (FaDu cells; [5]): 0.6 µmol/L
CCCOc1ccc(C(=O)Nc2cn(Cc3cccc(Cl)c3)cn2)cn1 [Example 136]	–	–	–	–	(100%-inhibition rate of cell proliferation) at 1 μmol/L, HT-29 (HT-29 cells): 71.8%; (100%-inhibition rate of cell proliferation) at 1 μmol/L, FaDu (FaDu cells): 75.2%; (100%-inhibition rate of cell proliferation) at 1 μmol/L, HCT-116 (HCT-116 cells; [3]): 44.2%
COC(=O)c1ccc(/C=C/C(=O)Nc2cn(Cc3cccc(Cl)c3)cn2)cn1 [Example 25, Methyl (E)-5-(3-((1-(3-chlorobenzyl)-1H-imidazol-4-yl)amino)-3-oxoprop-1-en-1-yl)picolinate]	–	–	2.61	> 10	IC50 (FaDu cells; [5]): 0.89 µmol/L
O=C(Nc1cn(Cc2cccc(C(F)(F)F)c2)cn1)c1ccc2cccnc2c1 [Example 195]	5.55	> 10	–	–	IC50 (FaDu cells; [1]): > 10 µmol/L
O=C(/C=C/c1ccc(Br)cc1)Nc1cn(Cc2cccc(Cl)c2)cn1 [Example 61]	0.02	0.09	–	–	IC50 (FaDu cells; [1]): 0.07 µmol/L; inhibitory effect on the sphere-forming ability of cancer cells (HCT-116 cells): particularly potent inhibitory effect
Cc1ccc(F)c(Cn2cnc(NC(=O)/C(F)=C/c3cccnc3)c2)c1F [Example 116]	–	–	0.8	> 10	IC50 (FaDu cells; [5]): 0.93 µmol/L
COc1ccc(C(=O)Nc2cn(Cc3ccc4c(c3)C(C)(C)CCC4(C)C)cn2)cc1OC [Example 172]	–	–	–	–	(100%-inhibition rate of cell proliferation) at 1 μmol/L, HT-29 (HT-29 cells): 16.6%; (100%-inhibition rate of cell proliferation) at 1 μmol/L, FaDu (FaDu cells): 42.3%; (100%-inhibition rate of cell proliferation) at 1 μmol/L, HCT-116 (HCT-116 cells; [3]): 34.3%

Compound	IC50 (HT-29 cells; [1]) [µmol/L]	IC50 (HCT-116 cells; [2]) [µmol/L]	IC50 (HT-29 cells; [5]) [µmol/L]	IC50 (HCT-116 cells; [6]) [µmol/L]	other results
COc1ccc(C(=O)Nc2cn(Cc3cccc(C(F)(F)F)c3)cn2)cc1OC [Example 165]	–	–	–	–	(100%-inhibition rate of cell proliferation) at 1 μmol/L, HT-29 (HT-29 cells): 28.0%; (100%-inhibition rate of cell proliferation) at 1 μmol/L, FaDu (FaDu cells): 24.1%; (100%-inhibition rate of cell proliferation) at 1 μmol/L, HCT-116 (HCT-116 cells; [3]): 31.9%
O=C(Nc1cn(Cc2cccc(Cl)c2)cn1)c1ccc(OC2CCCC2)nc1 [Example 208]	0.81	> 10	–	–	IC50 (FaDu cells; [1]): 5.33 µmol/L
O=C(Nc1cn(Cc2cccc(C(F)(F)F)c2)cn1)/C(F)=C/c1cccnc1 [Example 106]	–	–	0.8	8.29	IC50 (FaDu cells; [5]): 3.06 µmol/L
O=C(Nc1cn(Cc2cccc(C(F)(F)F)c2)cn1)c1cc2ccccc2cn1 [Example 178]	8.13	9.6	–	–	–
O=C(Nc1cn(Cc2cccc(Cl)c2)cn1)c1ccc(OCc2ccccc2)cc1 [Example 197]	–	–	–	–	(100%-inhibition rate of cell proliferation) at 1 μmol/L, HT-29 (HT-29 cells): 39.0%; (100%-inhibition rate of cell proliferation) at 1 μmol/L, FaDu (FaDu cells): 28.9%; (100%-inhibition rate of cell proliferation) at 1 μmol/L, HCT-116 (HCT-116 cells; [3]): 44.3%
O=C(/C=C/c1ccc(N2CCOCC2)cc1)Nc1cn(Cc2cccc(Cl)c2)cn1 [Example 96]	0.09	0.83	–	–	IC50 (FaDu cells; [1]): 0.07 µmol/L; inhibitory effect on the sphere-forming ability of cancer cells (HCT-116 cells): particularly potent inhibitory effect
CCOc1ccc(/C=C/C(=O)Nc2cn(Cc3cccc(OC(F)(F)F)c3)cn2)cn1 [Example 112]	–	–	0.04	> 10	IC50 (FaDu cells; [5]): 0.07 µmol/L; inhibitory effect on the sphere-forming ability of cancer cells (HCT-116 cells): particularly potent inhibitory effect
Cc1ccc(/C=C/C(=O)Nc2cn(Cc3cccc(Cl)c3)cn2)cc1 [Example 49]	0.06	0.1	–	–	IC50 (FaDu cells; [1]): 0.08 µmol/L; inhibitory effect on the sphere-forming ability of cancer cells (HCT-116 cells): particularly potent inhibitory effect
O=C(/C=C/c1cc(O)ccc1O)Nc1cn(Cc2cccc(C(F)(F)F)c2)cn1 [Example 235, (2E)-3-(2,5-Dihydroxyphenyl)-N-{1-[3-(trifluoromethyl)benzyl]-1H-imidazol-4-yl}prop-2-enamide Hydrochloride]	–	–	8.77	3.84	–
COc1ccc(OC)c(/C=C/C(=O)Nc2cn(Cc3cccc(C(F)(F)F)c3)cn2)c1 [Example 233]	–	–	5.46	4.35	–
O=C(Nc1cn(Cc2cccc(C(F)(F)F)c2)cn1)c1cccnn1 [Example 182]	5.6	> 10	–	–	–
O=C(Nc1cn(Cc2cccc(C(F)(F)F)c2)cn1)c1cc2cnccc2s1 [Example 194]	2.84	6.05	–	–	–
COc1ccc(C(=O)Nc2cn(Cc3cccc(Cl)c3)cn2)c(OC)n1 [Example 189]	4.64	4.94	–	–	–
O=C(Nc1cn(Cc2cccc(C(F)(F)F)c2)cn1)c1ccc(-c2ccc(CO)nc2)cc1 [Example 246, 4-[6-(Hydroxymethyl)pyridin-3-yl]-N-{-[3-(trifluoromethyl)benzyl]-1H-imidazol-4-yl}benzamide]	–	–	6.36	6.72	–
O=C(Nc1cn(Cc2cccc(C(F)(F)F)c2)cn1)c1cnc(Br)c(F)c1 [Example 227]	8	9.06	–	–	–
COc1ccc(NC(=O)c2cn(Cc3cccc(Cl)c3)cn2)cn1 [Example 263]	8.49	> 10	–	–	–
O=C(Nc1cn(Cc2cccc(C(F)(F)F)c2)cn1)c1ccc2ncccc2n1 [Example 184]	9.07	8.16	–	–	–
O=C(Nc1cn(Cc2cccc(C(F)(F)F)c2)cn1)c1ccccc1CO [Example 250, 2-(Hydroxymethyl)-N-{1-[3-(trifluoromethyl)benzyl]-1H-imidazol-4-yl}benzamide]	–	–	8.19	> 10	–
C=Cc1ncc(C(=O)Nc2cn(Cc3cccc(C(F)(F)F)c3)cn2)cc1F [Example 99, 6-Ethenyl-5-fluoro-N-{1-[3-(trifluoromethyl)benzyl]-1H-imidazol-4-yl}nicotinamide]	–	–	2.52	6.12	–
COc1ccc(NC(=O)c2cn(Cc3cc(F)c(F)c(F)c3)cn2)cn1 [Example 254]	6.45	> 10	–	–	–
